Test [1] has as its system rice blast fungus (Magnaporthe grisea). The test is classed as in vivo. The conditions noted are these: rice (Nipponbare), 500 ppm foliar spray, contact with infected seedling, 6 days.
The test system of test [2] is wheat rust fungus (Puccinia recondita). Briefly: Test Example 2: wheat rust, foliar spray preventive test. The test is classed as in vivo. The conditions noted are these: wheat (Shirogane), 500 ppm foliar spray, inoculated 5 days after spraying, assessed after 1 + 8 days.

Regarding `COC(=O)Nc1cccc(C)c1COc1ccc(-c2nccc(C)n2)cc1C` [Compound 2], the “lesion areas on treated plant relative to non-treated plant” value in test [1] is not above 30%.

Regarding `COC(=O)Nc1ccccc1COc1ccc(-c2ncccn2)cc1` [methyl N-(2-{[4-(pyrimidine-2-yl)phenoxy)methyl}phenyl)carbamate], the “area of the lesion on treated plant relative to untreated plant” value in test [2] is listed as not below 70%.
